In PubChem BioAssay (NCI):
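Briefly, cells in 96-well plates were exposed to five compound concentrations for 48 h, and endpoints were estimated by linear interpolation. GI50 is the concentration that inhibits growth by half. TGI is the concentration that stops growth completely.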

What was measured:
Test in all cases: NCI-60 cell line screen, 48 h
DMS 273 small cell lung = test system: DMS 273 small cell lung
SK-MEL-2 melanoma = test system: SK-MEL-2 melanoma
K-562 leukemia = test system: K-562 leukemia
HCT-15 colon = test system: HCT-15 colon
SW-620 colon = test system: SW-620 colon
HL-60(TB) leukemia = test system: HL-60(TB) leukemia
A549 NSCLC = test system: A549 NSCLC
NCI-H460 lung = test system: NCI-H460 lung
OVCAR-3 ovarian = test system: OVCAR-3 ovarian
NCI-H522 lung = test system: NCI-H522 lung

O=C1CSc2sc(=S)sc2S1
TGI (DMS 273 small cell lung): > 100 µM
TGI (SK-MEL-2 melanoma): > 100 µM
TGI (K-562 leukemia): > 100 µM
TGI (HCT-15 colon): > 100 µM
TGI (SW-620 colon): > 100 µM
TGI (HL-60(TB) leukemia): > 100 µM
TGI (A549 NSCLC): > 100 µM
TGI (NCI-H460 lung): > 100 µM
TGI (OVCAR-3 ovarian): > 100 µM
TGI (NCI-H522 lung): > 100 µM

CN(CCNC(=O)c1cn(C)c2c1ccc1cc(Cl)ccc12)CCNC(=O)c1cn(C)c2c1ccc1cc(Cl)ccc12
TGI (SK-MEL-2 melanoma): 13.7 µM
TGI (K-562 leukemia): 13.6 µM
TGI (HCT-15 colon): 3.3 µM
TGI (SW-620 colon): 40.5 µM
TGI (HL-60(TB) leukemia): 10.4 µM
TGI (NCI-H460 lung): > 100 µM
TGI (OVCAR-3 ovarian): 6.43 µM
TGI (NCI-H522 lung): 3.68 µM

Cc1ccc(NC(=O)CC(=O)n2nc(-c3ccccc3)c(N=Nc3ccccc3C(=O)O)c2-c2ccccc2)cc1
TGI (DMS 273 small cell lung): > 100 µM
TGI (SK-MEL-2 melanoma): > 100 µM
TGI (K-562 leukemia): > 100 µM
TGI (HCT-15 colon): > 100 µM
TGI (SW-620 colon): > 100 µM
TGI (A549 NSCLC): > 100 µM
TGI (OVCAR-3 ovarian): > 100 µM
TGI (NCI-H522 lung): > 100 µM

CC1C(O)[C@@]2(OC[C@@]34C(=O)CC5(O)[C@H](CCC6Cc7nc8c(nc7C[C@]65C)CC5CC[C@@H]6C7=C[C@H]9O[C@@]%10(O[C@@](C)(CO)C[C@@H]%10O)C(C)[C@@]9(O)[C@]7(C)[C@@H](O)CC6[C@]5(C)C8)C3=CC[C@H]4C2C)OC1(C)C (some centres not stated)
TGI (DMS 273 small cell lung): 0.000455 µM
TGI (SK-MEL-2 melanoma): 0.0141 µM
TGI (K-562 leukemia): 0.0798 µM
TGI (HCT-15 colon): 0.379 µM
TGI (SW-620 colon): 0.0433 µM
TGI (HL-60(TB) leukemia): 0.536 µM
TGI (A549 NSCLC): 0.494 µM
TGI (NCI-H460 lung): 0.0937 µM
TGI (OVCAR-3 ovarian): > 3.55 µM
TGI (NCI-H522 lung): 0.083 µM

COC[C@@H]1Cc2cc(OC)c3c(c2[C@H](c2ccc(OC)c(OC)c2)[C@H]1COC)OCO3
TGI (DMS 273 small cell lung): > 100 µM
TGI (SK-MEL-2 melanoma): > 100 µM
TGI (HCT-15 colon): > 100 µM
TGI (SW-620 colon): > 100 µM
TGI (HL-60(TB) leukemia): > 100 µM
TGI (A549 NSCLC): > 100 µM
TGI (NCI-H460 lung): > 100 µM
TGI (OVCAR-3 ovarian): > 100 µM
TGI (NCI-H522 lung): > 100 µM

Nc1nccc2c1ncn2C1C=C(CO)C(O)C1O (configuration not stated)
GI50 (DMS 273 small cell lung): 6.13 µM
TGI (DMS 273 small cell lung): > 1000 µM
TGI (SK-MEL-2 melanoma): 99.1 µM
GI50 (K-562 leukemia): 0.249 µM
TGI (K-562 leukemia): > 1000 µM
GI50 (HCT-15 colon): 226 µM
TGI (HCT-15 colon): > 1000 µM
GI50 (SW-620 colon): 0.775 µM
TGI (SW-620 colon): > 1000 µM
GI50 (HL-60(TB) leukemia): 0.337 µM
TGI (HL-60(TB) leukemia): > 1000 µM
GI50 (A549 NSCLC): > 1000 µM
TGI (A549 NSCLC): > 1000 µM
GI50 (NCI-H460 lung): 0.578 µM
TGI (NCI-H460 lung): > 1000 µM
GI50 (OVCAR-3 ovarian): 136 µM
TGI (OVCAR-3 ovarian): > 1000 µM
GI50 (NCI-H522 lung): > 1000 µM
TGI (NCI-H522 lung): > 1000 µM

O=[P+](O)c1cccs1
TGI (DMS 273 small cell lung): > 100 µM
TGI (K-562 leukemia): > 100 µM
TGI (HCT-15 colon): > 100 µM
TGI (SW-620 colon): > 100 µM
TGI (HL-60(TB) leukemia): > 100 µM
TGI (A549 NSCLC): > 100 µM
TGI (NCI-H460 lung): > 100 µM
TGI (NCI-H522 lung): > 100 µM
